# Marks after values point to notes of the source that are not given here.
# Test system: subjects with mild-to-moderate AD
# Experiment: MMSE (Mini Mental State Examination) change from baseline, 57-week Phase 2a study and 208-week extension study
# Assay type: in vivo, human
# Settings: for MMSE Cohen's d: week 57, compared to standard of care
# From the text: The present study integrates and analyzes data and samples from two consecutive clinical trials: 57-week study and 208-week study. 57-week study was a multicenter Phase 2a clinical trial of the drug ANAVEX2-73 that recruited a sample of 32 subjects with mild-to-moderate AD. It consisted of two parts: Part A was a simple randomized, open-label, two-period, cross-over, adaptive trial lasting up to 5 weeks. Each period involved one specific administration route and two possible dose levels: in one period the oral dose (30 mg or 50 mg) was administrated and in the other period an intravenous (IV) form (3 mg or 5 mg) was administered, making a total of 8 possible dose administration schemes in Part A (details available in FIG. 2A). The two periods were separated by a wash-out period of 12 days where no dose was given.
# Part B, following immediately after Part A, was an open-label extension of the oral daily dose for an additional 52 weeks. The primary endpoint of 57-week study was to establish the safety and tolerability of the drug. Secondary endpoints aimed at establishing the relationship between dosing regimen and pharmacodynamics-exploratory efficacy outcomes of cognition and function. Cognition was assessed by the Mini Mental State Examination (MMSE), while functional abilities by the Alzheimer's Disease Co-operative Study—Activities of Daily Living Inventory (ADCS-ADL). Additional cognitive measures included the Cogstate Brief Battery (CBB), and functional measures of Electroencephalography and Event-Related Potential (EEG and ERP). Part B continued an adaptive oral administration scheme. Table 12 summarizes mean oral dose administration during the 57-week study study.
# Due to favorable safety and tolerability profile of the 57-week study (Table 2), and in response to requests from patients and caregivers, a 208-week open-label extension study (208-week study) was carried out immediately after completion of 57-week study Part B. 208-week study enrolled the 24 subjects who completed Part B and applied similarly an adaptive daily oral administration scheme. ANAVEX2-73-003 involves continuous evaluation of safety and efficacy as measured by the MMSE and ADCS-ADL. At week 148 (interim time point for analyses), data on the subjects remaining in the study (n=21) was analyzed for efficacy outcomes. This report was drafted using data available at week 148, while ANAVEX2-73-003 is still ongoing.
# Exploratory clinical efficacy in this study was defined as change from baseline of each patient's cognitive (MMSE) and functional ability (ADCS-ADL) scores. The MMSE57 is a widely used, validated instrument in clinical AD research, including as a cognitive outcome measure in drug trials. The range of the scale is from 0 to 30, with a higher score indicating higher cognitive function. The ADCS-ADL58 is undertaken in a structured caregiver interview format and assesses performance in activities of daily living of patients with AD. The scale is from 0 to 78, with a higher score indicating greater function. The ADCS-ADL has shown to have good test-retest reliability 59. The MMSE and the ADCS-ADL were assessed during pre-specified clinical site visits across 14 different time points during the 57-week study (Weeks 0 and 5 in Part A; Weeks 17, 31, 41, 53, and 57 in Part B), and 208-week study (Weeks 70, 83, 96, 109, 122, 135, and 148) studies.
# Corresponding Delta scores were calculated using the difference between values at each visit and at baseline for each individual patient, with a focus on Week 57. In addition, to lower the impact of noise in MMSE and ADCS-ADL scores, a Slope was estimated using a linear regression across all available time points for each individual patient. The derived scores describe the progression of exploratory efficacy data from baseline at several specific time points (Deltas) and over a set period of time (Slope). […]
# [1] = Absence of COMT_L146fs variant & Baseline MMSE ≥20, N 11
# [2] = Absence of COMT_L146fs variant, N 16
# [3] = Absence of SIGMAR1_Q2P variant, N 16
# [4] = Absence of SIGNAR1_Q2P variant & Baseline MMSE ≥20, N 11
structure (smiles),measurement,setting,value
"CN(C)CC1CCOC1(c1ccccc1)c1ccccc1.Cl (stereo not shown) [ANAVEX2-73, tetrahydro-N,N-dimethyl-2,2-diphenyl-3-furanmethanamine hydrochloride]",MMSE Mean Δ at 57 weeks,[1],0.18 ± 4.35
same,MMSE Mean Δ at 57 weeks,[2],−0.62 ± 4.05
same,MMSE Mean Δ at 57 weeks,"Absence of SIGMAR1_Q2P variant & Absence of COMT_L145fs variant & Baseline MMSE ≥20, N 10",0.50 ± 4.45
same,MMSE Mean Δ at 57 weeks,[3],−0.62 ± 4.11
same,MMSE Mean Δ at 57 weeks,[4],0.27 ± 4.29
same,MMSE Mean Δ at 57 weeks,"All, N 21",−1.52 ± 4.15
same,MMSE Mean Δ at 57 weeks,"Baseline MMSE ≥20, N 13",−0.15 ± 4.06
same,"favorable difference in adjusted MMSE, higher concentration arm compared with low/medium arm","MMRM-LME, over 148 weeks",78%
same,MMSE Cohen's d,[1],0.98**
same,MMSE Cohen's d,[2],0.81**
same,MMSE Cohen's d,[3],0.81**
same,MMSE Cohen's d,[4],1.01**
same,MMSE Cohen's d,"Baseline MMSE ≥20, N 13",0.94**

# Reference: patent publication US12383526B2, “Optimized sigma-1 agonist method of responder selection and treatment” (ANAVEX LIFE SCIENCES CORP., priority 2018, dated 2025)
